In patent US20110143948A1, “MOLECULAR SIGNATURES AND BIOMARKERS ASSOCIATED WITH MELANOMA AND METHODS OF USE THEREOF” (priority 2008, published 2011):

Test system: ncRNAs (SEQ ID NO 28-89)
Experiment: ncRNA arrays of melanocytes, keratinocytes, normal skin, melanoma cell lines and patient samples
Parameters: species or system human
Conditions: for ncRNA array expression, patient 2: melanoma patient 2 sample compared to normal skin; for ncRNA array expression, patient 3: melanoma patient 3 sample compared to normal skin; for ncRNA array expression, patient 4: melanoma patient 4 sample compared to normal skin; for ncRNA array expression, patient 5: melanoma patient 5 sample compared to normal skin; for ncRNA array expression, patient 6: melanoma patient 6 sample compared to normal skin; for ncRNA array expression, patient 7: melanoma patient 7 sample compared to normal skin; for ncRNA array expression, patient 8: melanoma patient 8 sample compared to normal skin; for ncRNA array expression, patient 9: melanoma patient 9 sample compared to normal skin; for ncRNA array expression, patient 10: melanoma patient 10 sample compared to normal skin; for ncRNA array expression, patient 19: melanoma patient 19 sample compared to normal skin; for ncRNA array expression, patient 20: melanoma patient 20 sample compared to normal skin; for ncRNA array expression, patient 21: melanoma patient 21 sample compared to normal skin; for ncRNA array expression, patient 22: melanoma patient 22 sample compared to normal skin; for ncRNA array expression, patient 23: melanoma patient 23 sample compared to normal skin; for ncRNA array expression, patient 24: melanoma patient 24 sample compared to normal skin; for ncRNA array expression, patient 25: melanoma patient 25 sample compared to normal skin; for ncRNA array expression, patient 26: melanoma patient 26 sample compared to normal skin; for ncRNA array expression, patient 27: melanoma patient 27 sample compared to normal skin; for ncRNA array expression, patient 28: melanoma patient 28 sample compared to normal skin; for ncRNA array expression, patient 29: melanoma patient 29 sample compared to normal skin; for ncRNA array expression, patient 30: melanoma patient 30 sample compared to normal skin
Method in brief: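 Total RNA from melanocytes, keratinocytes, normal human skin, melanoma cell lines and melanoma patient samples was profiled on an array of >10,000 putative (>200 nt) human and mouse ncRNAs plus RefSeq mRNA probes. Expression was compared with melanocytes or normal skin, keratinocyte signatures were subtracted, and hits were validated by qRT-PCR and Northern blot.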

Substance | ncRNA array expression, patient 2 | ncRNA array expression, patient 3 | ncRNA array expression, patient 4 | ncRNA array expression, patient 5 | ncRNA array expression, patient 6 | ncRNA array expression, patient 7 | ncRNA array expression, patient 8 | ncRNA array expression, patient 9 | ncRNA array expression, patient 10 | ncRNA array expression, patient 19 | ncRNA array expression, patient 20 | ncRNA array expression, patient 21 | ncRNA array expression, patient 22 | ncRNA array expression, patient 23 | ncRNA array expression, patient 24 | ncRNA array expression, patient 25 | ncRNA array expression, patient 26 | ncRNA array expression, patient 27 | ncRNA array expression, patient 28 | ncRNA array expression, patient 29 | further results
SEQ ID NO 52 (TTTTCTTAGTCTTTTTACTTTTTCCATTATATTCTTTGATATATTTGAGAAAATGGCTTG; listed as DNA, chemistry not given here; listed as Homo sapiens) | 2.853 | 1.986 | 3.663 | 1.552 | 0.7809 | 0.9779 | 2.426 | 0.8678 | 0.7332 | 0.9835 | −0.5729 | 0.7286 | −0.2277 | −0.706 | −0.4016 | 3.265 | 3.428 | 0.4479 | 2.064 | 1.478 | ncRNA array expression, patient 30: −0.5811
SEQ ID NO 53 (ATATATTTAGATAGTACTATGTTTCGTTTTCTTCCGATTTCAGGGATCCTTTTGTCTTAC; listed as DNA, chemistry not given here; listed as Homo sapiens) | −2.867 | −2.306 | −2.08 | −2.02 | −1.882 | −2.068 | −1.878 | −2.195 | −3.16 | −2.319 | −1.903 | −2.124 | −2.7031 | −3.175 | −1.827 | −2.864 | −3.105 | −2.542 | −1.905 | −2.948 | ncRNA array expression, patient 30: −3.05
SEQ ID NO 54 (TTTTTTTTCTTGTCCTATTACAACATTTTATAACCTTATGAATCAATGGATACTTTTATT; listed as DNA, chemistry not given here; listed as Homo sapiens) | 0.357 | 2.627 | 3.179 | 0.2547 | 0.568 | 1.3 | 1.144 | −0.1401 | 0.4363 | 3.034 | 1.876 | 1.299 | −0.2466 | 0.7631 | 2.124 | 3.287 | 2.689 | 4.17 | 1.501 | −0.1851 | ncRNA array expression, patient 30: −0.1125
SEQ ID NO 55 (CCTCTCCCCTTCTTGCAAAAAATATTCTATATTCAAGTTTAGGAGAAAACAGAATACTTG; listed as DNA, chemistry not given here; listed as Homo sapiens) | −1.54 | −1.638 | −1.747 | −1.565 | −1.135 | −1.9789 | −1.065 | −2.029 | −1.191 | −1.029 | −1.812 | −2.321 | −1.439 | −1.275 | −1.478 | −2.11 | −2.186 | −2.019 | −2.043 | −2.155 | ncRNA array expression, patient 30: −0.5021
SEQ ID NO 56 (AAAAAATGAGGCAATCTCATCCCGAAACTATTTAAAACTACTCTCCTCTCTCTTGATAAA; listed as DNA, chemistry not given here; listed as Homo sapiens) | −2.014 | −1.535 | −1.64 | −1.4872 | −1.129 | −1.282 | −1.314 | −1.818 | −2.922 | −1.228 | −1.698 | −1.986 | −1.277 | −1.277 | −1.273 | −2.407 | −2.501 | −1.97 | −1.952 | −1.912 | ncRNA array expression, patient 30: −0.5599
SEQ ID NO 57 (TTGTTGTTTTGGGAGATACCCTGTTTAGCCTGAAAGGATTGAGATACTGTAATTGCTATG; listed as DNA, chemistry not given here; listed as Homo sapiens) | 1.808 | 2.081 | 1.613 | 2.211 | 1.68 | 0.6099 | 1.985 | 0.645 | 0.5023 | 0.2628 | 0.1922 | 0.9386 | 1.473 | 1.122 | 0.5436 | 1.559 | 1.989 | 1.446 | 1.064 | 0.4459 | ncRNA array expression, patient 30: −0.5305
SEQ ID NO 58 (ATTTATTTGACTCTAAAATGACAATATAACAACTATAAGGAATTGATATGATGTCCTTAC; listed as DNA, chemistry not given here; listed as Homo sapiens) | −1.675 | −1.723 | −0.4325 | −1.707 | −1.802 | −1.2619 | −1.825 | −1.569 | −1.223 | −1.471 | −1.134 | −1.719 | −1.28 | −1.756 | −1.757 | −1.52 | −1.463 | −1.595 | −1.708 | −1.543 | ncRNA array expression, patient 30: −1.631
SEQ ID NO 59 (TGTGCAGCAGTATCAAAGGTCCTTAAATTCTCAACAATGAAGGAAAAACAAAAACCCATT; listed as DNA, chemistry not given here; listed as Homo sapiens) | −0.9339 | −1.02 | −1.168 | −1.255 | −1.212 | −0.9325 | −0.9937 | −1.258 | −0.9688 | −1.202 | −1.14 | −1.263 | −0.5383 | −1.165 | −1.154 | −0.9916 | −0.8776 | −1.161 | −1.232 | −1.077 | ncRNA array expression, patient 30: −1.04
